Measured values as given in paper PMC9586938, “Picomolar fluorescent probes for compound affinity determination to carbonic anhydrase IX expressed in live cancer cells” (Scientific Reports, 2022).
Several values for one entry are separate records, joined by “and”; a condition that tells them apart may be missing. Equal entries are not always repeated. Where two headings read alike, the source gives them in different places.

Key:
CAI = biological target: T1, CAI (Homo sapiens, UniProt P00915); test: Thermal shift assay (TSA), recombinant CAI; type: binding; conditions: 37 °C, pH 7.0, observed (not intrinsic)
T1 construct: made in house; host or cells: E. coli
T1 sequence (P00915 whole entry): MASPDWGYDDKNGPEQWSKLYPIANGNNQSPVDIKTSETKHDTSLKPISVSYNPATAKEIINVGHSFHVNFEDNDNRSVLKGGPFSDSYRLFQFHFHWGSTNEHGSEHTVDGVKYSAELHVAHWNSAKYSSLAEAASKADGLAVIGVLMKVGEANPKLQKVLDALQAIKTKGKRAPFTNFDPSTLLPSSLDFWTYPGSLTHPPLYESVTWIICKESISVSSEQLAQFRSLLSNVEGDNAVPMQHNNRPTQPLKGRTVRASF

CAII = biological target: T2, CAII (Homo sapiens, UniProt P00918); test: Thermal shift assay (TSA), recombinant CAII; type: binding; conditions: 37 °C, pH 7.0, observed (not intrinsic)
T2 construct: made in house; host or cells: E. coli
Description: (§1) The binding affinities of all fluorescein-containing compounds were determined for all 12 catalytically active CA isozymes by the thermal shift assay (TSA). […] However, the SFA technique cannot determine the affinities lower than the enzyme concentration used in the assay. […] In addition, we used isothermal titration calorimetry (ITC), the standard assay to determine affinity and enthalpy of protein–ligand binding. […] Therefore, ITC was used only to determine the enthalpy of interaction and confirm the ordering of compound affinities.
(§2) All twelve catalytically active human CA isozymes were prepared recombinantly as previously described. Isozymes CAIX, CAXII, and CAXIV were the catalytic domains of the proteins[14],[38]. All isozymes were expressed in E. coli except CAIX that has been prepared in mammalian cells. The proteins were chromatographically purified on ion-exchange or benzene sulfonamide containing affinity columns. Protein MW was confirmed by mass spectrometry with 1 Da precision as predicted from gene sequence.
(§3) Compound affinities for the twelve catalytically active CA isozymes were determined by the thermal shift assay as previously described[30],[39]. Protein solutions containing 1,8-anilinonaphthalenesulfonate fluorescent probe were heated from 25 to 100 °C at a rate of one degree per minute while following the fluorescence of the probe. The temperature scanning curves provided the melting temperature Tm of the protein. The Tm has a distinct dependence on the concentration of a compound. Stronger binders shift the Tm to a greater extent than the weak binders. The Tm dependencies on compound concentration were fit to obtain the affinity Kd[40].

CAIII = biological target: T3, CAIII (Homo sapiens, UniProt P07451); test: Thermal shift assay (TSA), recombinant CAIII; type: binding; conditions: 37 °C, pH 7.0, observed (not intrinsic)
T3 construct: made in house; host or cells: E. coli
T3 sequence (P07451 whole entry): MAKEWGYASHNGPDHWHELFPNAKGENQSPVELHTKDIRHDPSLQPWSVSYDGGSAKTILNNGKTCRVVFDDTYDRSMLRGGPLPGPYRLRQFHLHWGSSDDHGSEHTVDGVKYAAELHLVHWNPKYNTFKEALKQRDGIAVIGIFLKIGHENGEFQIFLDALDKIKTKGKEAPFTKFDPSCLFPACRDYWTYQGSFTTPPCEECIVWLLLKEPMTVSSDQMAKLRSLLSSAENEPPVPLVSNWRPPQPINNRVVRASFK
Description: as §1, §2, §3

CAIV = biological target: T4, CAIV (Homo sapiens, UniProt P22748); test: Thermal shift assay (TSA), recombinant CAIV; type: binding; conditions: 37 °C, pH 7.0, observed (not intrinsic)
T4 construct: made in house; host or cells: E. coli
T4 sequence (P22748 19-312): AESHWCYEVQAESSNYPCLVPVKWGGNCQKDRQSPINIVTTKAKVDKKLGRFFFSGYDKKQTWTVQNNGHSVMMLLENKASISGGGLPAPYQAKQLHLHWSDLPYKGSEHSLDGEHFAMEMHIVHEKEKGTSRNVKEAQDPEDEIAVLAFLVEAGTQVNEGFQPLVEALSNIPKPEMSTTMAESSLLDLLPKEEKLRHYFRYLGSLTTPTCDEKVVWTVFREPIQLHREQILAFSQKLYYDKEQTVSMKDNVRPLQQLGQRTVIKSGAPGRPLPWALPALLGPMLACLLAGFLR

CAVA = biological target: T5, CAVA (Homo sapiens, UniProt P35218); test: Thermal shift assay (TSA), recombinant CAVA; type: binding; conditions: 37 °C, pH 7.0, observed (not intrinsic)
T5 construct: made in house; host or cells: E. coli
T5 sequence (P35218 39-305): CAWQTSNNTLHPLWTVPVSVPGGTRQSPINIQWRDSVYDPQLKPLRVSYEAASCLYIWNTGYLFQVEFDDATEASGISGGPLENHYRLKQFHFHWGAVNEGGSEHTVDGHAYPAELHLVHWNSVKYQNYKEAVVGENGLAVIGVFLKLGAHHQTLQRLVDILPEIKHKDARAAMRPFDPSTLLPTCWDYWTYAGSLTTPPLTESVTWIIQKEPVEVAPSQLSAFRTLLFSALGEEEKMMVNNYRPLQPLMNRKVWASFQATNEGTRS
Description: as §1, §2, §3

CAVB = biological target: T6, CAVB (Homo sapiens, UniProt Q9Y2D0); test: Thermal shift assay (TSA), recombinant CAVB; type: binding; conditions: 37 °C, pH 7.0, observed (not intrinsic)
T6 construct: made in house; host or cells: E. coli
T6 sequence (Q9Y2D0 34-317): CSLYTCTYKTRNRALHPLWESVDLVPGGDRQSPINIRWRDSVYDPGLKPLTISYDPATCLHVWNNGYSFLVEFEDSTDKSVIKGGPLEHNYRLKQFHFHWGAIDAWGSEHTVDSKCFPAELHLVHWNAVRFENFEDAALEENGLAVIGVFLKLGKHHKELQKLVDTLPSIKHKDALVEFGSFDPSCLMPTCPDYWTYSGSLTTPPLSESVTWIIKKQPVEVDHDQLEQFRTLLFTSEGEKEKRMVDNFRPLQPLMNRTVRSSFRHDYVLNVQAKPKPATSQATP

CAVI = biological target: T7, CAVI (Homo sapiens, UniProt P23280); test: Thermal shift assay (TSA), recombinant CAVI; type: binding; conditions: 37 °C, pH 7.0, observed (not intrinsic)
T7 construct: made in house; host or cells: E. coli
T7 sequence (P23280 18-308): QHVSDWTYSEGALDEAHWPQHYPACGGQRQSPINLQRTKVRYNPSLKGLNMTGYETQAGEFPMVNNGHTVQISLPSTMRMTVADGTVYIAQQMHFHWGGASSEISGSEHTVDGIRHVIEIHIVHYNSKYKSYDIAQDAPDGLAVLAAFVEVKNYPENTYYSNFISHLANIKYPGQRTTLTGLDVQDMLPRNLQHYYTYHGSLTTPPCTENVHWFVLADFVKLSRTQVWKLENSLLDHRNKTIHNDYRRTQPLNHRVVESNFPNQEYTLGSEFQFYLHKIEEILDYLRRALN
Description: as §1, §2, §3

CAVII = biological target: T8, CAVII (Homo sapiens, UniProt P43166); test: Thermal shift assay (TSA), recombinant CAVII; type: binding; conditions: 37 °C, pH 7.0, observed (not intrinsic)
T8 construct: made in house; host or cells: E. coli
T8 sequence (P43166 whole entry): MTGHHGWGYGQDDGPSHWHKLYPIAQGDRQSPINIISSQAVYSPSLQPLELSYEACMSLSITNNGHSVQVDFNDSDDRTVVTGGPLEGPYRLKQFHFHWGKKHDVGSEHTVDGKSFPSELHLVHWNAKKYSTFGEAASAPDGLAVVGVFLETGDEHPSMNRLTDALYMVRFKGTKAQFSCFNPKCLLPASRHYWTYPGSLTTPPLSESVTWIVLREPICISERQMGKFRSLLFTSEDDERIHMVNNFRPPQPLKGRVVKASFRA

[1] = biological target: T9, catalytic domain of recombinant human CAIX (Homo sapiens, UniProt Q16790); test: Thermal shift assay (TSA), recombinant CAIX catalytic domain; type: binding
T9 construct: Isozymes CAIX, CAXII, and CAXIV were the catalytic domains of the proteins; made in house; host or cells: mammalian cells

CAXII = biological target: T10, CAXII (Homo sapiens, UniProt O43570); test: Thermal shift assay (TSA), recombinant CAXII; type: binding; conditions: 37 °C, pH 7.0, observed (not intrinsic)
T10 construct: Isozymes CAIX, CAXII, and CAXIV were the catalytic domains of the proteins; made in house; host or cells: E. coli
T10 sequence (O43570 30-289 limits assumed): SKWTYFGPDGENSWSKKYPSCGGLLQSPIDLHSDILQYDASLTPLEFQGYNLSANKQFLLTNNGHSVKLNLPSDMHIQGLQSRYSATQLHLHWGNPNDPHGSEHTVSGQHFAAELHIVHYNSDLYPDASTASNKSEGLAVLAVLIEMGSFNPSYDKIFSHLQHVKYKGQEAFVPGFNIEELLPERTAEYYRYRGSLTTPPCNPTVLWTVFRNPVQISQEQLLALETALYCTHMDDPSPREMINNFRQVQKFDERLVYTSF
Description: as §1, §2, §3

CAXIII = biological target: T11, CAXIII (Homo sapiens, UniProt Q8N1Q1); test: Thermal shift assay (TSA), recombinant CAXIII; type: binding; conditions: 37 °C, pH 7.0, observed (not intrinsic)
T11 construct: made in house; host or cells: E. coli
T11 sequence (Q8N1Q1 whole entry): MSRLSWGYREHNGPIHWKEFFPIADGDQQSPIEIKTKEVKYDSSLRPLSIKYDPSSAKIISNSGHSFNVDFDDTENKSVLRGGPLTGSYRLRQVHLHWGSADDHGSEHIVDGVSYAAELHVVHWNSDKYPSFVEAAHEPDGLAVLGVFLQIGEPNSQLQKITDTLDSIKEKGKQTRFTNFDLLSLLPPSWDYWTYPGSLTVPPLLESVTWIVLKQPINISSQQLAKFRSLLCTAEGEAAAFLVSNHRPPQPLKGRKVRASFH

CAXIV = biological target: T12, CAXIV (Homo sapiens, UniProt Q9ULX7); test: Thermal shift assay (TSA), recombinant CAXIV; type: binding; conditions: 37 °C, pH 7.0, observed (not intrinsic)
T12 construct: Isozymes CAIX, CAXII, and CAXIV were the catalytic domains of the proteins; made in house; host or cells: E. coli
T12 sequence (Q9ULX7 20-278 limits assumed): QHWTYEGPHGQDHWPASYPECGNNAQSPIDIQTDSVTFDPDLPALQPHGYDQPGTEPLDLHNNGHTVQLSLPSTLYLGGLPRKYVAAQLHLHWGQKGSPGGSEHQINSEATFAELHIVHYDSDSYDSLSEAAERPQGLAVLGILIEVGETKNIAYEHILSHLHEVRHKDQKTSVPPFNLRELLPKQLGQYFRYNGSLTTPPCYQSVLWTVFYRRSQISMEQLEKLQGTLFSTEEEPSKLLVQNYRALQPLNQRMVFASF

[2] = tested on: CA activity in hypoxic HeLa WT cells; test: CA activity by gas-analysis mass spectrometry in live hypoxic HeLa WT cells; type: cell-based, human; conditions: Fig. 7A
Description: (§4) Catalytic activity of CA in hypoxic human cervical adenocarcinoma (HeLa) cells was determined by monitoring the ^18O depletion of doubly labeled ^13C^18O2 through several hydration and dehydration steps with a quadrupole mass spectrometer (OmniStar GSD 320; Pfeiffer Vacuum, Asslar, Germany) as previously described[16],[51]. HeLa cells were cultured in Dulbecco’s Modified Eagle’s Medium–high glucose (D5671; Sigma Aldrich, Schnelldorf, Germany), supplemented with 10% fetal calf serum and 1% penicillin / streptomycin. The cell line was cultured under hypoxia (1% O2) for three days prior to measurements. Cells were detached from the plate with Accumax Cell Detachment Solution (ACM-1F; Capricorn Scientific, Ebsdorfergrund, Germany), washed and resuspended in HEPES-buffered saline (143 mM NaCl, 5 mM KCl, 2 mM CaCl2, 1 mM MgSO4, 1 mM Na2HPO4, 10 mM HEPES, pH 7.2). Approximately 3 × 10^6 cells, dissolved in 5 mL of HEPES-buffered saline (pH 7.2, RT), were used for every single measurement. […] For every measurement, the non-catalyzed reaction was determined for 12 min in the presence of inhibitor, before cell suspension was added to the measuring cuvette and the catalyzed reaction was determined for 12 min. […] IC50 values were determined by Hill1 fit using OriginPro 8.6 (OriginLab Corporation). CA enzymatic activity in units (U) was calculated as defined by Badger and Price[52]. […]

[3] = tested on: CA activity in hypoxic HeLa CAIX-KO cells; test: CA activity by gas-analysis mass spectrometry in live hypoxic HeLa CAIX-KO cells; type: cell-based, human
Description: as §4

hypoxic HeLa cells = test: XTT cell viability assay; type: cell-based, human; conditions: up to 1 µM, 3 h
Description: Potential cytotoxic effects on HeLa cells were determined by XTT assay. The XTT was carried out as previously described by Scudiero et al.[53]. HeLa cells were cultured under hypoxia (1% O2) for three days prior to measurements. Cells were detached from the plate with Accumax Cell Detachment Solution (ACM-1F; Capricorn Scientific, Ebsdorfergrund, Germany), washed and resuspended in HEPES-buffered saline (143 mM NaCl, 5 mM KCl, 2 mM CaCl2, 1 mM MgSO4, 1 mM Na2HPO4, 10 mM HEPES, pH 7.2). For each measurement, 100,000 cells were incubated with 1 nM or 1 µM of GZ18-23 for 3 h prior to adding the XTT (No. 38450, SERVA Electrophoresis GmbH, Heidelberg, Germany) / electron coupling reagent (PMS; No. 32030, SERVA). XTT-specific absorbance was measured at 492 nm using a microplate reader (Tecan Infinite F200; Tecan Trading AG, Männedorf, Switzerland). Background absorption was measured at 690 nm. Cells, which were not incubated in GZ18-23, were used as control (100%).

[4] = biological target: T13, CAIX expressed on live HeLa cells (Homo sapiens, UniProt Q16790); test: Competition of unlabeled compound with 10 nM GZ19-32 on hypoxic HeLa cells (competitive binding model); type: cell-based
T13 construct: recombinant CAIX and endogenous CAIX expressed on the cell surface; endogenous in cells; host or cells: HeLa (WT), grown under hypoxia (1% O2)

[5] = biological target: CAIX expressed on live A549 cells (Homo sapiens, UniProt Q16790); test: Competition of unlabeled compound with 10 nM GZ19-32 on hypoxic A549 cells (competitive binding model)

Work on NS(=O)(=O)c1c(F)c(F)c(S(=O)(=O)CCC(=O)O)c(NC2CCCCCCC2)c1F [GZ18-23, 3-((2-(cyclooctylamino)-3,5,6-trifluoro-4-sulfamoylphenyl)sulfonyl)propanoic acid] yielded a Kd (CAI) of 5000 nM, a Kd (CAII) of 160 nM and a Kd (CAIII) of over 200000 nM. The Kd (CAIV) was 120 nM, the Kd (CAVA) was 12500 nM and the Kd (CAVB) was 160 nM. It also gave a Kd (CAVI) of 140 nM, a Kd (CAVII) of 43 nM and a Kd ([1]; TSA, 37 °C, pH 7.0, observed (not intrinsic), read-out: Kd CAIX) of 0.033 nM. The “selectivity for CAIX over CAVII” value ([1]; ratio of Kd) was 1000 ×, the “selectivity for CAIX over CAXII” value ([1]; ratio of Kd) was 30 fold and the “selectivity for CAIX over CAXIII” value ([1]; ratio of Kd) was 300 ×. The “selectivity for CAIX over CAXIV” value ([1]; ratio of Kd) was 100 fold, the “selectivity for CAIX over the remaining CA isozymes” value ([1]; ratio of Kd) was “more than 3000 ×” and the Kd ([1]; recombinant CAIX, read-out: Kd for CAIX) was 0.03 nM. For the same molecule, the Kd ([1]; recombinantly purified CAIX, read-out: Kd for purified CAIX by TSA) was 0.033 nM, the Kd (CAXII) was 1 nM and 1.4 nM and the Kd (CAXIII) was 10 nM. The Kd (CAXIV) was 3.3 nM, the IC50 ([2]; Homo sapiens, hypoxic HeLa cells, gas-analysis MS, read-out: k, inhibition of CA activity (Hill fit)) was 0.92 nM and the “overall CA activity remaining uninhibited” value ([2]; hypoxic HeLa WT cells) was “approximately 20%”. For the same molecule, the “effect on CA activity” value [3] was “no effect”, the “viability of hypoxic HeLa cells” value (hypoxic HeLa cells) was “did not affect the viability” and the “dosing midpoint of competition curve” value ([4]; 10 nM GZ19-32, Fig. 12) was “around 10 nM”. The Kd ([4]; HeLa cells grown under hypoxia, mixture with 10 nM GZ19-32, 20 min incubation, read-out: KdA, nM (competitive binding model)) was 0.3 nM, the “difference between affinity for CAIX on cells and purified CAIX” value ([4]; lower affinity on cells) was 3 to 10 factor and the melting point was 143 to 144 °C. The Kd [5] was 0.22 nM.
